In ChEMBL document CHEMBL1131756, “Synthesis and biological activity of anthelmintic thiadiazoles using an AF-2 receptor binding assay” (Bioorg Med Chem Lett, 1999):

Target: AF2 neuropeptide receptor
Test: In vitro antihelminthic activity using AF2 Neuropeptide receptor binding assay in Caenorhabditis elegans

## COC(=O)c1ccnc(-c2nn(-c3c(Cl)cc(C(F)(F)F)cc3Cl)c(=N)s2)c1
  IC50: 0.13 µM

## Cc1ccccc1-c1nn(-c2c(Cl)cc(Cl)cc2Cl)c(=N)s1
  IC50: 4 µM

## COC(=O)c1ccccc1-c1nn(-c2c(Cl)cc(C(F)(F)F)cc2Cl)c(=N)s1
  IC50: > 100 µM

## N=c1sc(-c2cncc(C(F)(F)F)c2)nn1-c1c(Cl)cc(C(F)(F)F)cc1Cl
  IC50: 0.021 µM

## N=c1sc(-c2ccccc2)nn1-c1c(Cl)cc(Cl)cc1Cl
  IC50: 3 µM

## CC(=O)Nc1ccc(-c2nn(-c3c(Cl)cc(Cl)cc3Cl)c(=N)s2)cc1
  IC50: 70 µM

## N=c1sc(-c2cnccn2)nn1-c1c(Cl)cc(C(F)(F)F)cc1Cl
  IC50: 0.2 µM

## N=c1sc(-c2ccccn2)nn1-c1c(Cl)cc(Cl)cc1C(F)(F)F
  IC50: 0.14 µM

## N=c1sc(-c2ccccc2F)nn1-c1c(Cl)cc(Cl)cc1Cl
  IC50: 0.5 µM

## N=c1sc(-c2ccc(Br)cc2)nn1-c1c(Cl)cc(Cl)cc1Cl
  IC50: 4 µM

## CCOC(=O)Oc1ccc(-c2nn(-c3c(Cl)cc(Cl)cc3Cl)c(=N)s2)cc1
  IC50: 4 µM

## N=c1sc(-c2cccc(C(F)(F)F)c2F)nn1-c1c(Cl)cc(Cl)cc1Cl
  IC50: 4 µM

## N=c1sc(-c2ccccc2SC(F)(F)F)nn1-c1c(Cl)cc(C(F)(F)F)cc1Cl
  IC50: 56 µM

## N=c1sc(-c2ccccn2)nn1-c1c(Cl)cc(C(F)(F)F)cc1Cl
  IC50: 0.09 µM

## N=c1sc(-c2c(F)cccc2C(F)(F)F)nn1-c1c(Cl)cc(C(F)(F)F)cc1Cl
  IC50: > 100 µM

## N=c1sc(-c2ccc(Cl)cc2)nn1-c1c(Cl)cc(Cl)cc1Cl
  IC50: 5 µM

## N=c1sc(-c2cccnc2)nn1-c1c(Cl)cc(Cl)cc1Cl
  IC50: 40 µM

## N=c1sc(-c2cc(F)ccc2F)nn1-c1c(Cl)cc(C(F)(F)F)cc1Cl
  IC50: 0.37 µM

## N=c1sc(-c2ccc(C(F)(F)F)cc2F)nn1-c1c(Cl)cc(Cl)cc1Cl
  IC50: 1 µM

## N=c1sc(-c2ccnc([N+](=O)[O-])c2)nn1-c1c(Cl)cc(C(F)(F)F)cc1Cl
  IC50: 0.013 µM

## N=c1sc(-c2cc([N+](=O)[O-])ccc2F)nn1-c1c(Cl)cc(C(F)(F)F)cc1Cl
  IC50: 0.63 µM

## N=c1sc(-c2cc(C(F)(F)F)ccc2F)nn1-c1c(Cl)cc(C(F)(F)F)cc1Cl
  IC50: 0.063 µM

## N=c1sc(-c2ccc(O)cc2)nn1-c1c(Cl)cc(Cl)cc1Cl
  IC50: 4 µM

## N=c1sc(-c2ccccc2OC(F)(F)F)nn1-c1c(Cl)cc(C(F)(F)F)cc1Cl
  IC50: 85 µM

## N#Cc1ccnc(-c2nn(-c3c(Cl)cc(C(F)(F)F)cc3Cl)c(=N)s2)c1
  IC50: 0.01 µM

## CC(C)(C)c1cc(-c2nn(-c3c(Cl)cc(C(F)(F)F)cc3Cl)c(=N)s2)ccn1
  IC50: 0.037 µM

## N=c1sc(-c2ccc(OC(F)(F)F)cc2)nn1-c1c(Cl)cc(Cl)cc1Cl
  IC50: 5 µM

## N=c1sc(-c2ncc(C(F)(F)F)cc2Cl)nn1-c1c(Cl)cc(C(F)(F)F)cc1Cl
  IC50: 2.4 µM

## N=c1sc(-c2ccc(C(F)(F)F)cc2)nn1-c1c(Cl)cc(Cl)cc1Cl
  IC50: 20 µM

## N=c1sc(-c2cccnn2)nn1-c1c(Cl)cc(C(F)(F)F)cc1Cl
  IC50: 35 µM

## N=c1sc(-c2cc(Cl)ccn2)nn1-c1c(Cl)cc(C(F)(F)F)cc1Cl
  IC50: 0.16 µM

## N=c1sc(-c2ccc([N+](=O)[O-])cc2)nn1-c1c(Cl)cc(Cl)cc1Cl
  IC50: 5 µM

## N=c1sc(-c2cc(C(F)(F)F)ccc2F)nn1-c1c(Cl)cc(Cl)cc1Cl
  IC50: 0.1 µM

## N=c1sc(-c2ccc(F)cc2)nn1-c1c(Cl)cc(Cl)cc1Cl
  IC50: 0.9 µM

## COC(=O)c1ccc(-c2nn(-c3c(Cl)cc(Cl)cc3Cl)c(=N)s2)cc1
  IC50: 11 µM

## N=c1sc(-c2cccc(Br)n2)nn1-c1c(Cl)cc(C(F)(F)F)cc1Cl
  IC50: 20 µM

## N=c1sc(-c2ccccn2)nn1-c1c(Cl)cc(Cl)cc1Cl
  IC50: 0.4 µM

## N=c1sc(-c2ccccc2F)nn1-c1c(Cl)cc(C(F)(F)F)cc1Cl
  IC50: 0.15 µM

## COc1ccc(OC)c(-c2nn(-c3c(Cl)cc(C(F)(F)F)cc3Cl)c(=N)s2)c1
  IC50: 4 µM

## N=c1sc(-c2cc(CN)ccn2)nn1-c1c(Cl)cc(C(F)(F)F)cc1Cl
  IC50: 47 µM

## N=c1sc(-c2cccc(F)c2)nn1-c1c(Cl)cc(Cl)cc1Cl
  IC50: 8 µM

## COc1ccc(-c2nn(-c3c(Cl)cc(Cl)cc3Cl)c(=N)s2)cc1
  IC50: 80 µM

## Cc1ccc(-c2nn(-c3c(Cl)cc(Cl)cc3Cl)c(=N)s2)cc1
  IC50: 7 µM

## Cc1cccnc1-c1nn(-c2c(Cl)cc(C(F)(F)F)cc2Cl)c(=N)s1
  IC50: 11 µM

## N=c1sc(-c2cc(Br)ccc2F)nn1-c1c(Cl)cc(C(F)(F)F)cc1Cl
  IC50: 0.63 µM

## N=c1sc(-c2ccncn2)nn1-c1c(Cl)cc(C(F)(F)F)cc1Cl
  IC50: 2.6 µM

## N#Cc1ccc(-c2nn(-c3c(Cl)cc(Cl)cc3Cl)c(=N)s2)cc1
  IC50: 6 µM
